This is an account of results in PMC6672714 (Frontiers in Physiology, 2019).

Assay [1] deals with intact pituitaries (GnRH1-induced CART secretion). The assay is described as follows: inhibition of GnRH1-induced CART secretion in intact pituitaries, Western blot. Format: cell-based, chicken. The conditions noted are these: GnRH1 5 nM, 4 h, N = 3. The procedure: As described in our recent study ([Huang et al., 2014]), the intact anterior pituitaries collected from 1-week-old male chicks were washed with PBS and placed on a 48-well plate (NUNC) supplemented with 400 μl serum-free Medium 199 (Invitrogen). After 1-h incubation at 37°C, the medium was replaced by 300 μl serum-free Medium 199 containing different concentrations of chicken GnRH1 or GnRH2 (0.1–100 nM) and incubated for 4 h.
One representative set of Western blotting is shown at the bottom.
On the technique in general: Immunoblotting shows a protein as a band on a membrane.

Assay [2] relates to cultured chick pituitary cells (GnRH1-induced CART mRNA). Type of assay: cell-based, chicken. The conditions noted are these: GnRH1 10 nM, 24 h, N = 4. As to the method:
(§1) As described in our recent studies ([Huang et al., 2014]; [Mo et al., 2015]), anterior pituitaries collected from 1-week-old chicks were sliced and digested by 0.25% trypsin at 37°C for 20 min. The dispersed pituitary cells were cultured at a density of 5 × 10^5 cells/well in Medium 199 supplemented with 15% fetal bovine serum in a Corning Cell BIND 48-well plates (Corning, Tewksbury, MA) at 37°C with 5% CO2. After 24-h culture, the medium was replaced with serum-free M199 medium and the cells were treated with chicken GnRH1/GnRH2 for the duration (12–48 h) or with increasing doses (0.1–100 nM) of each peptide. The total RNA was then extracted from cultured pituitary cells and the expression of CART and β-actin assayed by qPCR.
“ND” indicates no statistical difference between the two groups. Each data point represents mean ± SEM of four replicates (N = 4). ^**p < 0.01 vs. control; ^#p < 0.01 vs. GnRH1 treatment (in the absence of drug). […] Total ERK2 in cell lysates was also examined and used as internal controls. Note: only a single band for pERK2 or total ERK2 (42 kDa) was detected in cell lysate, because ERK1 gene is lost in chicken genome ([Gerilechaogetu et al., 2009]). The representative sets of independent experimental duplicates are shown here.
“ND” indicates no statistical difference between the two groups. Each data point represents mean ± SEM of four replicates (N = 4). ^**p < 0.01 vs. control. […] The β-actin in cell lysates were also examined and used as internal controls. The representative sets of independent experimental duplicates are shown here.

For assay [3], the system named is cultured chick pituitary cells (CART mRNA). Kind of assay: CART mRNA expression in cultured chick pituitary cells, qPCR. Type of assay: cell-based, chicken. The conditions noted are these: N = 4.
Text: Chicken anterior pituitaries were collected either for cell culture, or for total RNA extraction. Total RNA was extracted from chicken tissues or cultured pituitary cells using RNAzol (Molecular Research Center, Cincinnati, OH) and reversely transcribed using M-MLV reverse transcriptase (TaKaRa). Reverse transcription (RT) samples were then used for quantitative real-time PCR (qPCR) assays to investigate the mRNA expression of target genes, as described in our recent studies ([Cai et al., 2015]; [Mo et al., 2015]).
as §1
The data were analyzed by the Student’s t-test (between two groups) or by one-way ANOVA followed by the Dunnett test in GraphPad Prism 5 (GraphPad Software, San Diego, CA). To validate our results, all experiments were repeated at least three times.
The mRNA levels of CART were normalized by β-actin and expressed as the percentage of respective controls. Each value represents the mean ± SEM of four replicates (N = 4). ^*p < 0.05, ^**p < 0.01 vs. respective control. (E) RT-PCR detection of GnRHR2 expression in cultured chick pituitary cells (three replicates). RT was performed in the presence (+) or absence (−) of reverse transcriptase. Parallel PCR of β-actin was performed to serve as an internal control.

Assay [4] relates to chicken GnRHR2. Kind of assay: pGL4-SRE-luciferase reporter, MAPK/ERK signaling pathway, CHO cells expressing chicken GnRHR2. Type of assay: cell-based. The conditions noted are these: four replicates. The source says:
(§2) Based on the reported cDNA sequences of chicken GnRHR1 and GnRHR2 (accession nos.: NM_204653; NM_001012609) ([Sun et al., 2001]; [Shimizu and Bedecarrats, 2006]), gene-specific primers were used to amplify the open reading frame from adult chicken anterior pituitaries using high-fidelity Taq DNA polymerase (TOYOBO, Japan). The amplified PCR products were cloned into the pcDNA3.1 (+) expression vector (Invitrogen) and sequenced. According to our previously established methods, the signaling property of each receptor was examined in Chinese hamster ovary (CHO) cells using pGL3-NFAT-RE-luciferase ([Wang et al., 2012]), pGL4-SRE-luciferase ([Mo et al., 2015]), and pGL3-CRE-luciferase reporter systems ([Wang et al., 2007]).
(§3) Although two GnRH receptors (GnRHR1 and GnRHR2) have been identified in chickens ([Sun et al., 2001]; [Shimizu and Bedecarrats, 2006]; [Joseph et al., 2009]), their downstream signaling pathways have not been fully characterized.
(§4) Figure 5 Activation of chicken GnRHR1 or GnRHR2 expressed in CHO cells by chicken GnRH1 or GnRH2, monitored by pGL3-NFAT-RE-luciferase (A,D), pGL4-SRE-luciferase (B,E), and pGL3-CRE-luciferease (C,F) reporter systems. […] Each data point represents mean ± SEM of four replicates (N = 4).

Assay [5] deals with chicken GnRHR1. Kind of assay: pGL4-SRE-luciferase reporter, MAPK/ERK signaling pathway, CHO cells expressing chicken GnRHR1. The conditions noted are these: four replicates. Format: cell-based.
Text: as §2, §3, §4
(A reporter such as luciferase makes a cellular process visible.)

The test system of assay [6] is chicken GnRHR2. Kind of assay: pGL3-NFAT-RE-luciferase reporter, calcium signaling pathway, CHO cells expressing chicken GnRHR2. Format: cell-based. The conditions noted are these: four replicates.
Text: as §2, §3, §4

The subject of assay [7] is chicken GnRHR2. The assay is described as follows: pGL3-CRE-luciferase reporter, cAMP/PKA signaling pathway, CHO cells expressing chicken GnRHR2. Format: cell-based. The conditions noted are these: four replicates.
Text: as §2, §3, §4

In assay [8] the test system is chicken GnRHR1. The assay is described as follows: pGL3-NFAT-RE-luciferase reporter, calcium signaling pathway, CHO cells expressing chicken GnRHR1. Format: cell-based. Conditions: four replicates.
Text: as §2, §3, §4

For assay [9], the system named is chicken GnRHR1. The assay is described as follows: pGL3-CRE-luciferase reporter, cAMP/PKA signaling pathway, CHO cells expressing chicken GnRHR1. Format: cell-based. Conditions: four replicates.
Text: as §2, §3, §4

For assay [10], the system named is chicken GnRHR1. The assay is described as follows: three cell-based luciferase reporter assays, GnRHR1 (qualitative). The conditions noted are these: GnRHR1, CHO cells, calcium, MAPK/ERK and cAMP/PKA reporters.
Text: as §2, §3, §4

Assay [11] concerns chicken GnRHR2. The assay is described as follows: three cell-based luciferase reporter assays, GnRHR2 (qualitative).
Text: as §2, §3, §4

In assay [12] the test system is intact anterior pituitaries (CART secretion). Kind of assay: CART peptide secretion from intact anterior pituitaries incubated in vitro, Western blot. Type of assay: cell-based, chicken. The conditions noted are these: 4 h, intact chick pituitaries, N = 3. As to the method: As described in our recent study ([Huang et al., 2014]), the intact anterior pituitaries collected from 1-week-old male chicks were washed with PBS and placed on a 48-well plate (NUNC) supplemented with 400 μl serum-free Medium 199 (Invitrogen). After 1-h incubation at 37°C, the medium was replaced by 300 μl serum-free Medium 199 containing different concentrations of chicken GnRH1 or GnRH2 (0.1–100 nM) and incubated for 4 h. […] Parallel blotting of β-actin and CART in pituitary tissue lysates was also conducted.
The intracellular CART (iCART) and β-actin levels in the pituitary tissue lysate were also examined in parallel. […] Each data point represents mean ± SEM of three replicates (N = 3). ^*p < 0.05; ^**p < 0.01 vs. respective control. […] One representative set of Western blot is shown at the top of each graph.

“Also recorded” adds a separate entry of the source. Where two headings read alike, the source gives them in different places. No end group written: not given here.

For the molecule `NCCOB(c1ccccc1)c1ccccc1` [2-APB, 2-aminoethoxydiphenyl borate], in assay [1] (2-APB 100 μM), the “effect on GnRH1-induced CART secretion” value was “significantly inhibited”.
On to `CN([C@@H](Cc1ccc(OS(=O)(=O)c2cccc3cnccc23)cc1)C(=O)N1CCN(c2ccccc2)CC1)S(=O)(=O)c1cccc2cnccc12` [KN62], for which the “effect on GnRH1-induced CART mRNA expression” value in assay [2] (KN62 5 μM) is given as “could inhibit GnRH1-induced CART mRNA expression”.
Consider `Cl.c1ccc(C2CCCC2NC2=NCCCCCCCCCCC2)cc1` (stereo not drawn) [MDL12330A], for which, in assay [2] (MDL12330A 20 μM), the “effect on GnRH1-induced CART mRNA expression” value is recorded as “could abolish GnRH1-induced CART expression”.
In the case of `COc1cccc(-c2cc(=O)c3ccccc3o2)c1N` [PD98059], the “effect on GnRH1-induced CART mRNA expression” value in assay [2] (PD98059 100 μM) is reported as “could inhibit GnRH1-induced CART mRNA expression”.
`COc1ccc2c(c1)CC[C@@H]1[C@@H]2CC[C@]2(C)[C@@H](NCCCCCCN3C(=O)C=CC3=O)CC[C@@H]12` [U73122]: the “effect on GnRH1-induced CART secretion” value in assay [1] (U73122 20 μM) is “significantly inhibited”. Besides, the “effect on GnRH1-induced CART mRNA expression” value in assay [2] (U73122 20 μM) is “could inhibit GnRH1-induced CART mRNA expression”.
For the molecule `Clc1ccc(C(c2ccc(Cl)cc2)n2cc[n+](CC(OCc3ccc(Cl)cc3Cl)c3ccc(Cl)cc3Cl)c2)cc1` (stereo not drawn) [calmidazolium], the “effect on GnRH1-induced CART mRNA expression” value in [2] (calmidazolium 1 μM) is on record as “could inhibit GnRH1-induced CART mRNA expression”.
Consider `COc1c(C[C@@H](C)OC(=O)Oc2ccc(O)cc2)c2c3c(C[C@@H](C)OC(=O)c4ccccc4)c(OC)c(=O)c4c(O)cc(OC)c(c5c(OC)cc(O)c(c1=O)c52)c43` [calphostin C], for which the “effect on GnRH1-induced CART mRNA expression” value in assay [2] (calphostin C 200 nM) was “could inhibit GnRH1-induced CART mRNA expression”.
On to `C=C[C@@]1(C)CC(=O)[C@]2(O)[C@@]3(C)[C@@H](O)CCC(C)(C)[C@@H]3[C@H](O)[C@H](OC(C)=O)[C@@]2(C)O1` [forskolin, reference compound], for which the “effect on CART mRNA expression” value in [3] (forskolin 2 μM, 24 h) is reported as “could mimic GnRH1 action on CART expression”.
Regarding `COC(=O)C1=C(C)NC(C)=C(C(=O)OC)C1c1ccccc1[N+](=O)[O-]` [nifedipine], the “effect on GnRH1-induced CART secretion” value in [1] (nifedipine 5 μM) was “significantly inhibited”. Also, the “effect on GnRH1-induced CART mRNA expression” value in [2] (nifedipine 5 μM) is “could inhibit GnRH1-induced CART mRNA expression”.
For `C/C=C(/C)C(=O)O[C@H]1C(C)=C2[C@H]([C@@H]1OC(=O)CCCCCCC)[C@@](C)(OC(C)=O)C[C@H](OC(=O)CCC)[C@@]1(O)[C@H]2OC(=O)[C@@]1(C)O` [thapsigargin], the “effect on GnRH1-induced CART mRNA expression” value in [2] (thapsigargin 100 nM) is “could inhibit GnRH1-induced CART mRNA expression”.
For “GnRH2: chicken gonadotropin-releasing hormone 2, synthesized using solid-phase Fmoc chemistry (QHWSHGWYPG; not fully specified; ends and bridges not checked; UniProt P68072 1-10, looked up)”, the EC50 in assay [4] stood at 2.84 nM; in assay [5] it was 3.1 nM; in [6] it was 0.26 nM; in assay [7] it was 0.27 nM; in assay [8], 0.39 nM; in assay [9] it was 0.69 nM. The “activation of GnRHR1 (luciferase activity)” value in [10] is on record as “stimulate the luciferase activities dose-dependently; also recorded: potently activated by GnRH2”. Besides, the “relative potency at GnRHR2” value in [11] (GnRH2 compared with GnRH1, GnRHR2, CHO cells) is “slightly more potent than GnRH1”. Besides, in assay [11] (GnRHR2, CHO cells, calcium, MAPK/ERK and cAMP/PKA reporters), the “activation of GnRHR2 (luciferase activity)” value is “stimulate the luciferase activities dose-dependently; also recorded: potently activated by both GnRH1 and GnRH2”. In addition, the “effect on CART mRNA expression, time and dose dependence” value in [3] (10 nM time course or 0–100 nM for 48 h, qPCR) was “induce CART expression in time- and dose-dependent manners”. Besides, the “secretion of mature CART peptide” value in assay [12] (0–100 nM) is reported as “potently stimulated the secretion of mature CART peptide”. In addition, the “minimal effective concentration, CART secretion” value in assay [12] was determined as 1 nM.

A word on the EC50: it is the concentration needed to bring the measured effect to its halfway point.
